Measured values as given in PMC5706701, “Development of a homogenous high-throughput assay for inositol hexakisphosphate kinase 1 activity” (PLoS ONE, 2017).
Counter-ions that a name gives are not always drawn. Like-named read-outs stand apart in the source and are kept apart here.

Target: T1, Human IP6K1 (Homo sapiens, UniProt Q92551)
T1 construct: GST (N, cleaved yes); made in house; host or cells: C43 E. coli, pGEX-6P-2
Assay: IP6K1 high-throughput screen of the Sigma LOPAC (ADP-Glo Max, single point);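 note: final compound concentration 10µM in 5% DMSO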
Assay type: biochemical

[1] = LOPAC single-point screen, ADP-Glo Max luminescence raw signal per well
[2] = LOPAC single-point screen, ADP-Glo Max raw signal per well
[3] = LOPAC single-point screen, Z-score against plate average and StDev
[4] = LOPAC single-point screen, Z-score from raw signal with plate average and StDev
[5] = Sigma LOPAC single-point screen, ADP-Glo Max raw signal per well
[6] = Sigma LOPAC single-point screen, Z-score from plate average and StDev
[7] = LOPAC single-point screen, Z-score relative to plate average and StDev

T1 sequence (Q92551 whole entry): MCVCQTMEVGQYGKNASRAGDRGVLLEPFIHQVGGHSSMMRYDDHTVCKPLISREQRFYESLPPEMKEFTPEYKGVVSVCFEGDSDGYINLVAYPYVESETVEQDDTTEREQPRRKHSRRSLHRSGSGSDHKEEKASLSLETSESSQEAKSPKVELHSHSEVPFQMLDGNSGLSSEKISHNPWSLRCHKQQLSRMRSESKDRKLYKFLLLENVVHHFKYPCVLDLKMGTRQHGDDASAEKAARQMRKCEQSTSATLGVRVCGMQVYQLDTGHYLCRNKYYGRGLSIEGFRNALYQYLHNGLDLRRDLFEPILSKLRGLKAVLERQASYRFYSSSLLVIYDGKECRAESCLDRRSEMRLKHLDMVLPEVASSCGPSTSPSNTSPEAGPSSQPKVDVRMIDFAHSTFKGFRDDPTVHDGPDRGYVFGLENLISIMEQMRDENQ

`C[N+](C)(C)CC#CCN1CCCC1=O` [Oxotremorine methiodide] was tested, and the “Raw Signal” value [1] was 63016 and the Z-score (LOPAC single-point screen, Z-score from plate average and StDev) was 1.4488.
`N=C(N)NCCC[C@H](N)C(=O)O` [L-Arginine] was tested, and the “Raw Signal” value [2] was 58902 and the Z-score [3] was 0.1742.
In the case of `COc1cc([C@@H]2c3cc4c(cc3[C@@H](O[C@@H]3O[C@@H]5CO[C@@H](C)O[C@H]5[C@H](O)[C@H]3O)[C@H]3COC(=O)[C@H]23)OCO4)cc(OC)c1O` [Etoposide], the “Raw Signal” value [2] was 53339 and the Z-score [4] was -0.3713.
For `O=C(O)/C=C/c1ccc(O)c(O)c1` [Caffeic Acid], the “Raw Signal” value [2] was 56687 and the Z-score [4] was -0.216.
With `COc1ccc(C(=O)NCc2cccnc2)cc1C(=O)NCc1cccnc1` [Picotamide] the “Raw Signal” value [2] was 56073 and the Z-score [3] was 0.009557.
`CC(=O)c1ccc(S(=O)(=O)NC(=O)NC2CCCCC2)cc1` [Acetohexamide] was tested, and the “Raw Signal” value [5] was 64165 and the Z-score [6] was 1.101.
In the case of `COc1cc(CNC(=O)CCCCCCC(C)C)ccc1O` [Dihydrocapsaicin], the “Raw Signal” value [2] was 52937 and the Z-score [4] was -0.2447.
In the case of `CC(=O)[C@]1(O)Cc2c(O)c3c(c(O)c2[C@@H](O[C@H]2C[C@H](N)[C@H](O)[C@H](C)O2)C1)C(=O)c1ccccc1C3=O` [Idarubicin], the “Raw Signal” value [2] was 55218 and the Z-score [3] was 0.01035.
In the case of `NNc1nncc2ccccc12` [Hydralazine hydrochloride], the “Raw Signal” value [2] was 53853 and the Z-score [4] was -0.2669.
`Cl.NCC#Cc1ccccc1` [3-Phenylpropargylamine hydrochloride] was tested, and the “Raw Signal” value [1] was 53264 and the Z-score [7] was -0.5362.
With `Cl.Cl.NCCC(=O)NCCc1c[nH]cn1` [Carcinine dihydrochloride] the “Raw Signal” value [1] was 35878 and the Z-score [7] was -3.881.
`c1ccc(C2CC2)c(OCC2=NCCN2)c1` [Cirazoline hydrochloride] was tested, and the “Raw Signal” value [1] was 48676 and the Z-score [7] was -1.318.
`CC(C)c1ccc2c(c1)c(SC(C)(C)C)c(CC(C)(C)C(=O)O)n2Cc1ccc(Cl)cc1` [MK-886] was tested, and the “Raw Signal” value [2] was 53257 and the Z-score [4] was -0.191.
`Cc1nc2c(OCc3ccccc3)cccn2c1CC#N` [SCH-28080] was tested, and the “Raw Signal” value [1] was 49264 and the Z-score [7] was -1.199.
In the case of `Cl.O=C(OC1CCN(CCCl)CC1)C(c1ccccc1)c1ccccc1`, the “Raw Signal” value [2] was 54369 and the Z-score [4] was -0.1621.
`O=[N+]([O-])c1cc(O)c(O)c([N+](=O)[O-])c1` [3,5-Dinitrocatechol] was tested, and the “Raw Signal” value [2] was 56696 and the Z-score [3] was 0.3105.
`CNCCCC12CCC(c3ccccc31)c1ccccc12` [Maprotiline hydrochloride] was tested, and the “Raw Signal” value [2] was 54786 and the Z-score [3] was 0.06595.
For `C[N+]1(CCCCC[N+]2(C)CCCC2)CCCC1.O=C([O-])C(O)C(O)C(=O)O.O=C([O-])C(O)C(O)C(=O)O` [Pentolinium di[L(+)-tartrate]], the “Raw Signal” value [5] was 60160 and the Z-score [6] was 0.9689.
In the case of `NCCCC(=O)O` [GABA], the “Raw Signal” value [5] was 63549 and the Z-score [6] was 0.9926.
For `CC(C)(C)c1o[nH]c(=O)c1CC(N)C(=O)O` (centres unmarked) [ATPA], the “Raw Signal” value [2] was 57342 and the Z-score [4] was -0.1006.
With `CC1CNCCN1S(=O)(=O)c1cccc2cnccc12.Cl.Cl` (centres unmarked) the “Raw Signal” value [2] was 52932 and the Z-score [4] was -0.2456.
With `O=C1N(c2ccccc2)c2ccccc2C1(Cc1ccncc1)Cc1ccncc1` [Linopirdine] the “Raw Signal” value [2] was 55241 and the Z-score [3] was 0.1424.
In the case of `CCN(CC)CCCC(C)Nc1ccnc2cc(Cl)ccc12` (centres unmarked) [Chloroquine diphosphate], the “Raw Signal” value was 55954 and the Z-score was -0.3451.
In the case of `COc1nc(C)nc(Cl)c1NC1=NCCN1.Cl` [Moxonidine hydrochloride], the “Raw Signal” value [2] was 52362 and the Z-score [4] was -0.3413.
For `O=c1n(CCCN2CCN(c3cccc(Cl)c3)CC2)nc2ccccn12` [Trazodone hydrochloride], the “Raw Signal” value [5] was 58114 and the Z-score [6] was 0.4061.
`O=[N+]([O-])c1ccc(CSc2ncnc3c2ncn3[C@@H]2O[C@H](CO)[C@@H](O)[C@H]2O)cc1` [S-(4-Nitrobenzyl)-6-thioinosine] was tested, and the “Raw Signal” value [1] was 50827 and the Z-score [7] was -0.5993.
With `CCCCCCCC/C=C\CCCCCCCC(=O)O` [Oleic Acid] the “Raw Signal” value [2] was 53829 and the Z-score [4] was -0.09485.
With `Br.NC1CCc2cc(O)c(O)cc2C1` (centres unmarked) [6,7-ADTN hydrobromide] the “Raw Signal” value [2] was 55279 and the Z-score [3] was 0.02274.
With `OCc1cc(C(O)CNCCCCCCOCCCCc2ccccc2)ccc1O` (centres unmarked) [Salmeterol] the “Raw Signal” value [1] was 52718 and the Z-score [7] was -0.6423.
With `Nc1nc(Cl)nc2c1ncn2C1OC(CO)C(O)C1O` (centres unmarked) [2-Chloroadenosine] the “Raw Signal” value [2] was 58125 and the Z-score [3] was 0.03732.
In the case of `NC(=O)c1cc[n+](CC2=C(C(=O)[O-])N3C(=O)[C@@H](NC(=O)C(c4ccccc4)S(=O)(=O)[O-])[C@H]3SC2)cc1.O.[Na+]` (some centres unmarked) [Cefsulodin sodium salt hydrate], the “Raw Signal” value [2] was 56779 and the Z-score [4] was -0.1997.
In the case of `NNCc1cccc(O)c1` [3-Hydroxybenzylhydrazine dihydrochloride], the “Raw Signal” value [2] was 53590 and the Z-score [4] was -0.3203.
For `NC/C=C\C(=O)O` [cis-4-Aminocrotonic acid], the “Raw Signal” value [1] was 52551 and the Z-score [7] was -0.6747.
With `N[C@@H](Cc1ccc(O)c(I)c1)C(=O)O` [3-Iodo-L-tyrosine] the “Raw Signal” value [1] was 50230 and the Z-score [7] was -0.6996.
Work on `CN1C(=O)CC[C@H]1c1cccnc1` [(-)-Cotinine] yielded a Z-score [7] of -0.59.
With `CCCn1cnc2c1c(=O)n(CCCCC(C)=O)c(=O)n2C` [Propentofylline] the “Raw Signal” value [2] was 54119 and the Z-score [4] was -0.3701.
For `N#C/C(=C\c1ccc(O)c(O)c1)C(=O)NCCCNC(=O)/C(C#N)=C/c1ccc(O)c(O)c1` [Tyrphostin AG 537], the “Raw Signal” value [1] was 33325 and the Z-score [7] was -4.41.
In the case of `COC[C@H]1OC(=O)c2coc3c2[C@@]1(C)C1=C(C3=O)[C@@H]2CCC(=O)[C@@]2(C)C[C@H]1OC(C)=O` [Wortmannin from Penicillium funiculosum], the “Raw Signal” value [1] was 53582 and the Z-score [7] was -0.4744.
For `C[C@](N)(CCP(=O)(O)O)C(=O)O.Cl` [(S)-MAP4 hydrochloride], the “Raw Signal” value [2] was 53240 and the Z-score [4] was -0.1938.
For `NC[C@@H]1O[C@H](O[C@H]2[C@@H](O)[C@H](O[C@@H]3[C@@H](O)[C@H](N)C[C@H](N)[C@H]3O[C@H]3O[C@H](CO)[C@@H](O)[C@H](O)[C@H]3N)O[C@@H]2CO)[C@H](N)[C@@H](O)[C@@H]1O` [Paromomycin sulfate], the “Raw Signal” value [2] was 55765 and the Z-score [3] was -0.05028.
With `O=C(NCCNCC(O)COc1ccc(O)cc1)N1CCOCC1` (centres unmarked) [Xamoterol hemifumarate] the “Raw Signal” value [5] was 60033 and the Z-score [6] was 0.7789.
In the case of `O=c1[nH]c2cc(C(F)(F)F)ccc2n1-c1cc(C(F)(F)F)ccc1O` [NS-1619], the “Raw Signal” value [1] was 51434 and the Z-score [7] was -0.4973.
With `CC1=C(/C=C/C(C)=C/C=C/C(C)=C/C=C/C=C(C)/C=C/C=C(C)/C=C/C2=C(C)C(=O)[C@@H](O)CC2(C)C)C(C)(C)C[C@H](O)C1=O` [Astaxanthin] the “Raw Signal” value [2] was 57440 and the Z-score [3] was -0.08333.
`Clc1cnc(Oc2ccc(Oc3ncc(Cl)cc3Cl)cc2)c(Cl)c1` [TCPOBOP] was tested, and the “Raw Signal” value [2] was 54822 and the Z-score [4] was -0.2335.
For `CC(=O)O[C@H]1C[C@@]2(C)[C@@H](C[C@@H](O)[C@H]3[C@@]4(C)CC[C@@H](O)[C@@H](C)[C@@H]4CC[C@@]32C)/C1=C(\CCC=C(C)C)C(=O)[O-].[Na+]` [Fusidic acid sodium], the “Raw Signal” value [2] was 56091 and the Z-score [3] was 0.1876.
In the case of `CCCn1c(=O)[nH]c(=O)c2nc[nH]c21` [3-n-Propylxanthine], the “Raw Signal” value [5] was 57454 and the Z-score [6] was 0.5142.
For `Cc1cc(C(C)(C)C)c(O)c(C)c1CC1=NCCN1` [Oxymetazoline hydrochloride], the “Raw Signal” value [2] was 52488 and the Z-score [4] was -0.3202.
`COc1cc2c(cc1C(F)(F)F)N(C(=O)Nc1cc(F)cc(-c3cccnc3)c1)CC2` [SB 228357] was tested, and the “Raw Signal” value [5] was 58844 and the Z-score [6] was 0.7468.
With `CCc1ccccc1OC[C@@H](O)CN[C@H]1CCCc2ccccc21.O=C(O)C(=O)O` [SR 59230A oxalate] the “Raw Signal” value [2] was 55204 and the Z-score [4] was -0.1593.
For `CC(=O)O[C@H]1C[C@@H]2CC[C@@H]3[C@H](CC[C@@]4(C)[C@H]3C[C@H]([N+]3(C)CCCCC3)[C@@H]4OC(C)=O)[C@@]2(C)C[C@@H]1[N+]1(C)CCCCC1` [Pancuronium bromide], the “Raw Signal” value [5] was 59072 and the Z-score [6] was 0.7861.
In the case of `Br.Oc1cc2c(c(Cl)c1O)CCNCC2c1ccccc1` (racemic) [(±)-6-Chloro-PB hydrobromide], the “Raw Signal” value [2] was 55203 and the Z-score [4] was -0.1595.
`Cl.OC1CCCCC1N1CCC(c2ccccc2)CC1` (racemic) [(±)-Vesamicol hydrochloride] was tested, and the “Raw Signal” value [1] was 53363 and the Z-score [7] was -0.5169.
For `Clc1ccc(C(c2ccccc2Cl)C(Cl)Cl)cc1` (centres unmarked), the “Raw Signal” value [2] was 59387 and the Z-score [3] was 0.2596.
With `Cl.NC1CCN(c2cccc(Cl)n2)CC1` [SR 57227A] the “Raw Signal” value [1] was 53376 and the Z-score [7] was -0.5144.
In the case of `O=C(CCCN1CCC(O)(c2ccc(Cl)cc2)CC1)c1ccc(F)cc1` [Haloperidol], the “Raw Signal” value [1] was 51923 and the Z-score [7] was -0.6588.
For `C[C@]12CC[C@H](O)CC1=CC[C@@H]1[C@@H]2CC[C@]2(C)C(=O)CC[C@@H]12` [trans-Dehydroandrosterone], the “Raw Signal” value [2] was 53982 and the Z-score [4] was -0.2407.
With `COc1ccc(Cl)cc1C(=O)NCCc1ccc(S(=O)(=O)NC(=O)NC2CCCCC2)cc1` [Glibenclamide] the “Raw Signal” value [5] was 57524 and the Z-score [6] was 0.4787.
In the case of `Cc1cn([C@H]2C[C@H](N=[N+]=[N-])[C@@H](CO)O2)c(=O)[nH]c1=O` [3 -Azido-3 -deoxythymidine], the “Raw Signal” value [5] was 61635 and the Z-score [6] was 0.6555.
`CNCC[C@H](Oc1ccc(C(F)(F)F)cc1)c1ccccc1.Cl` [S-(+)-Fluoxetine hydrochloride] was tested, and the “Raw Signal” value [5] was 58446 and the Z-score [6] was 0.6659.
With `O=C(O)c1cccnc1C(=O)O` [Quinolinic acid] the “Raw Signal” value [1] was 51489 and the Z-score [7] was -0.881.
